Measurements from patent publication US20210038607A1, “OXADIAZOLYLTHIOPHENE DERIVATIVES USEFUL AS HISTONE DEACETYLASE INHIBITORS” (Karus Therapeutics Limited, priority 2018, published 2021).

How the values were obtained:
[1] = biological target: T1, Complex of human HDAC3 and human NCOR2 (Homo sapiens, UniProt O15379); assay: HDAC3 biochemical assay, AMC-labeled peptide substrate; details: read-out: HDAC Isoform IC50 (nM) 3
T1 construct: full length with C-terminal His tag, MW=49.7 kDa; His (C); host or cells: baculovirus expression system (co-expressed)
Procedure, shortened: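 Two-stage fluorogenic read: compounds incubated 1 h at 30° C with 50 μM RHKK(Ac)AMC and 0.1 ng/ul HDAC3–NCOR2(395-489) complex (Tris pH8.0, NaCl, KCl, MgCl2, BSA, 1% DMSO). Developer digestion of deacetylated product gives signal at Ex 360/Em 460.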

Human HDAC11 = biological target: T2, Human HDAC11 (Homo sapiens, UniProt Q96DB2); assay: HDAC11 biochemical assay, class IIa-specific substrate; details: read-out: HDAC Isoform IC50 (nM) 11
T2 construct: Human HDAC11 (full length); His (N); host or cells: baculovirus expression system
T2 sequence (Q96DB2 1-347): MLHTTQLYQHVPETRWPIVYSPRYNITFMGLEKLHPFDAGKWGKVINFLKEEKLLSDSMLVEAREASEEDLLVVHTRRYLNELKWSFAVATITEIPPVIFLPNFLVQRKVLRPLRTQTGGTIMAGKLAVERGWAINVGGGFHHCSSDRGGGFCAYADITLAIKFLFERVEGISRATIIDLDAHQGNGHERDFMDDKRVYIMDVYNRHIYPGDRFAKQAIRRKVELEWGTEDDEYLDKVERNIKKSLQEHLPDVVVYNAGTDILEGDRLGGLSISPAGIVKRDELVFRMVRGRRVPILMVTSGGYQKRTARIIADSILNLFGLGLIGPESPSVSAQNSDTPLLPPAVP
Procedure, shortened: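 Full-length N-His human HDAC11 from baculovirus, 5 ng/μl, incubated with 50 μM Boc-Lys(trifluoroacetyl)-AMC for 30 min at 30 °C. Buffer: 50 mM Tris-HCl pH 8.0, 137 mM NaCl, 2.7 mM KCl, 1 mM MgCl2, 1 mg/mL BSA, 1% DMSO. Developer releases AMC; fluorescence read at 360/460 nm.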

Human HDAC2 = biological target: T3, Human HDAC2 (Homo sapiens, UniProt Q92769); assay: HDAC2 biochemical assay, AMC-labeled peptide substrate; details: read-out: HDAC Isoform IC50 (nM) 2
T3 construct: full length with C-terminal GST-tag; GST (C); host or cells: baculovirus expression system
Procedure, shortened: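 Full-length human HDAC2 with C-terminal GST tag, baculovirus-expressed, at 0.07 ng/ul with 50 μM RHKK(Ac)AMC substrate in Tris-HCl pH8.0 buffer with BSA, 1% DMSO final. Incubated 1 hour at 30° C with compounds, then developer added; fluorescence read at 360/460 Ex/Em.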

[2] = system: acetylated α-tubulin in A549 lung adenocarcinoma cells; assay: Acetylated α-tubulin in-cell western (ICW) assay; assay type: cell-based; details: Homo sapiens, 16 h exposure, relative to 40 μM scriptaid positive control, read-out: EC50 Ac-α-tubulin, A549 cells
Procedure, shortened: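 A549 cells exposed to compound for 16 h at 37 °C (0.4% DMSO final), then fixed and immunostained for acetylated α-tubulin or histone H3 with near-infrared detection, signal normalised to cell stain. Response expressed relative to DMSO controls and to 40 μM scriptaid (tubulin) or 40 μM TSA (H3); EC50 by constrained nonlinear regression.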

[3] = system: acetylated histone H3 in A549 lung adenocarcinoma cells; assay: Acetylated histone H3 in-cell western (ICW) assay; assay type: cell-based; details: Homo sapiens, 16 h exposure, relative to 40 μM Trichostatin A positive control, read-out: EC50 Ac-histone H3, A549 cells
Description: Acetylated α-Tubulin and Histone H3 in-Cell Western (ICW) Assays
A549 cells were maintained in DMEM (Life Technologies)+10% FBS+2 mM glutamine & penicillin (10 μg/mL) and streptomycin ([…]. 10,000 A549 cells per well were plated into 96 well tissue culture plates (Corning) and incubated at 37° C. overnight in a humidified atmosphere containing 5% CO2 prior to addition of compounds. Compounds (dissolved in 100% DMSO) were diluted into cell culture media at 2× final assay concentration. 2× compound or DMSO (negative control) were added to cells (final DMSO concentration 0.4%). Untreated control wells received media. For acetylated α-tubulin assays, 40 μM scriptaid was used as a positive control. For acetylated histone H3 assays, 40 μM Trichostatin A (TSA) was used as a positive control. Cells were exposed to compound at 37° C. in a humidified atmosphere containing 5% CO2 for 16 h.
Measurement of the impact of compounds on levels of acetylated α-tubulin and histone H3 was performed using specific antibodies and near-infrared immunofluorescent dyes. Briefly, media was removed from wells of assay plates. Cells were washed once with PBS and fixed in 3.7% formaldehyde PBS solution at room temperature for 20 min. Cells were then permeabilised by washing 5 times in 0.1% triton-X-100 PBS at room temperature with gentle agitation for 5 min per wash. Non-specific antibody staining was blocked by the addition of Odyssey blocking buffer (Li-Cor) for 1.5 h at room temperature with gentle agitation. Cells were then incubated with primary antibody (mouse monoclonal anti-acetylated α-tubulin (clone 6-11B-1), Sigma or rabbit polyclonal anti-acetylated histone H3, Millipore) diluted in Odyssey blocking buffer at 4° C. with gentle shaking overnight (no antibody control and secondary antibody only wells were incubated with Odyssey blocking buffer only). Cells were washed five times with 0.1% tween PBS and labelled with secondary antibody (IR dye 800CW-conjugated goat anti mouse IgG or -goat anti rabbit IgG, Li-Cor) and cell stains Sapphire700 (Li-Cor) and Draq5 (Biostatus) diluted in Odyssey blocking buffer at room temperature in the dark with gentle shaking for 1 h (no antibody control wells were incubated with Odyssey blocking buffer only and secondary antibody only with diluted secondary antibody but no cell stains). Cells were washed with 0.1% Tween PBS five times and scanned using a Li-Cor Odyssey SA plate reader in 700 and 800 nm channels. Acetylated α-tubulin or histone H3 signal was normalised to cell number using the cell stain signal. Percentage increase in acetylated α-tubulin or histone H3 after compound treatment over the mean of DMSO treated controls, relative to scriptaid and TSA positive controls, respectively was calculated. EC50 values were calculated using GraphPad Prism software and nonlinear regression with 0% bottom and 100% top constraints.

T1 sequence (O15379 whole entry, canonical isoform): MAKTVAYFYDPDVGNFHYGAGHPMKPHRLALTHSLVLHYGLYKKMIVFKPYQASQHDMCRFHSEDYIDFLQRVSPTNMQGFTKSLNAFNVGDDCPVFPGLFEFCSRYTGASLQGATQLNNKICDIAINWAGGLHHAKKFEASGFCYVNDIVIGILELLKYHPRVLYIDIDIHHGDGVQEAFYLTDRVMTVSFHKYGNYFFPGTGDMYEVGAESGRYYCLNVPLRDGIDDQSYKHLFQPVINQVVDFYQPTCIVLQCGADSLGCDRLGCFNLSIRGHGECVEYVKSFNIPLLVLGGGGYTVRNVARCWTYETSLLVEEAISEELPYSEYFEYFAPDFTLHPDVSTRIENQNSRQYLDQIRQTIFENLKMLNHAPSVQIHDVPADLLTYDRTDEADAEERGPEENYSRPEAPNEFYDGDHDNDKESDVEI
T1 sequence (Q9Y618 395-489 partner limits assumed): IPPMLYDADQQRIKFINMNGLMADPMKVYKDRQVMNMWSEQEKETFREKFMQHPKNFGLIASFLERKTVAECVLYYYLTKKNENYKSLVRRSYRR
T3 sequence (Q92769 whole entry, canonical isoform): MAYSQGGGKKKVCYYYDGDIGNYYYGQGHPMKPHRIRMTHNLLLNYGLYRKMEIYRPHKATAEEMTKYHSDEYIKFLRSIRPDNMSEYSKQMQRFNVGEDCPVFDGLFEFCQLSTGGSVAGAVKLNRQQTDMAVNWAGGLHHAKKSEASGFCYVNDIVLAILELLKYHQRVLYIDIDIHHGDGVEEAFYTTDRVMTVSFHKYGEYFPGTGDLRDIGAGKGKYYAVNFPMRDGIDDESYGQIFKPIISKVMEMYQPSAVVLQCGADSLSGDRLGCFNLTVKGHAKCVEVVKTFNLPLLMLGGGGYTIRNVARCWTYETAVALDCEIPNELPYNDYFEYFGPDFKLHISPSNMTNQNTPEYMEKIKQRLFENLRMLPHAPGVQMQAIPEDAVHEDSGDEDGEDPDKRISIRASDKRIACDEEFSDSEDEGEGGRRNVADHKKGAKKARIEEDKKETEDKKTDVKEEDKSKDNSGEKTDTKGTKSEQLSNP

Row | IC50 [1] [nM] | IC50 (Human HDAC11) [nM] | IC50 (Human HDAC2) [nM] | EC50 [2] [µM] | EC50 [3] [µM] | Structure (SMILES)
1 | > 10000 | > 10000 | > 10000 | – | – | FC(F)(F)c1nc(-c2ccc(CN(c3ccncn3)c3cnccn3)s2)no1 [Example BZ, N-(Pyrazin-2-yl)-N-({5-[5-(trifluoromethyl)-1,2,4-oxadiazol-3-yl]thiophen-2-yl}methyl)pyrimidin-4-amine]
2 | > 10000 | > 10000 | > 10000 | – | – | FC(F)(F)c1nc(-c2ccc(CN(c3ccccn3)c3cnccn3)s2)no1 [Example V, N-(Pyridin-2-yl)-N-({5-[5-(trifluoromethyl)-1,2,4-oxadiazol-3-yl]thiophen-2-yl}methyl)pyrazin-2-amine]
3 | – | – | – | ≥ 10 | ≥ 10 | CS(=O)(=O)c1nccc(N(Cc2ccc(-c3noc(C(F)(F)F)n3)s2)c2cnccn2)n1 [Example CE, 2-Methanesulfonyl-N-(pyrazin-2-yl)-N-({5-[5-(trifluoromethyl)-1,2,4-oxadiazol-3-yl]thiophen-2-yl}methyl)pyrimidin-4-amine]
4 | > 10000 | > 10000 | > 10000 | 1 to 10 | ≥ 10 | CS(=O)(=O)c1ccc(N(Cc2ccc(-c3noc(C(F)(F)F)n3)s2)c2cnccn2)nn1 [Example DL, 6-Methanesulfonyl-N-(pyrazin-2-yl)-N-({5-[5-(trifluoromethyl)-1,2,4-oxadiazol-3-yl]thiophen-2-yl}methyl)pyridazin-3-amine]
5 | > 10000 | > 10000 | > 10000 | – | – | FC(F)(F)c1nc(-c2ccc(CN(c3cncnc3)c3cnccn3)s2)no1 [Example CR, N-(Pyrazin-2-yl)-N-({5-[5-(trifluoromethyl)-1,2,4-oxadiazol-3-yl]thiophen-2-yl}methyl)pyrimidin-5-amine]
6 | ≤ 10000 | > 10000 | > 10000 | 1 to 10 | ≥ 10 | FC(F)(F)c1nc(-c2ccc(CN(c3cnccn3)c3ccc(N4CCCC4)nn3)s2)no1 [Example DI, N-(Pyrazin-2-yl)-6-(pyrrolidin-1-yl)-N-({5-[5-(trifluoromethyl)-1,2,4-oxadiazol-3-yl]thiophen-2-yl}methyl)pyridazin-3-amine]
7 | ≤ 10000 | > 10000 | > 10000 | ≥ 10 | ≥ 10 | FC(F)(F)c1ccc(N(Cc2ccc(-c3noc(C(F)(F)F)n3)s2)c2cnccn2)nn1 [Example DH, N-(Pyrazin-2-yl)-6-(trifluoromethyl)-N-({5-[5-(trifluoromethyl)-1,2,4-oxadiazol-3-yl]thiophen-2-yl}methyl)pyridazin-3-amine]
